These results are taken from US10294202B2, “Pyrrolidinones as herbicides” (FMC Corporation, priority 2013, dated 2019).

SMILES strings stand for the structures.

The subject of assay [1] is sedge, umbrella. Description: Test F flood (paddy) test. The format is in vivo, Cyperus difformis. Particulars: 21 d, scale 0-100. An excerpt: (§1) Three plastic pots (ca. 16-cm diameter) per rate were partially filled with sterilized Tama silt loam soil comprising a 35:50:15 ratio of sand, silt and clay and 2.6% organic matter. Separate plantings for each of the three pots were as follows. Seeds from the U.S. of monochoria (Monochoria vaginalis), sedge, umbrella (small-flower umbrella sedge, Cyperus difformis), bulrush, […] bulrush, Scirpus juncoides), and […] (purple […] coccinea), were planted into one 16-cm pot for each rate. Seeds from the U.S. of flatsedge, rice (rice flatsedge, Cyperus iria), sprangletop, Brdd. (bearded sprangletop, Leptochloa fascicularis), one stand of 9 or 10 water seeded rice seedlings (Rice, W.S. Jap, Oryza sativa cv. 'Japonica-[…]' or Rice, W.S. Ind, 'Indica'), and two stands of 3 or 4 seedlings of rice, transplanted (transplanted rice, Oryza sativa cv. 'Japonica-[…]') were planted into one 16-cm pot for each rate. Seeds from the U.S. of barnyardgrass (Echinochloa crus-galli), […] (common […], Alisma plantago-aquatica), and watergrass, late (late watergrass, Echinochloa oryzicola) were planted into one 16-cm pot for each rate. Plantings were sequential so that crop and weed species were at the 2.0 to 2.5-leaf stage at time of treatment. Potted plants were grown in a greenhouse with day/night temperature settings of 30/27° C., and supplemental balanced lighting was provided to maintain a 16-h photoperiod. Test pots were maintained in the greenhouse until test completion. At time of treatment, test pots were flooded to 3 cm above the soil surface, treated by application of test compounds directly to the paddy water, and then maintained at that water depth for the duration of the test. Effects of treatments on rice and weeds were visually evaluated by comparison to untreated controls after 21 d. Plant response ratings, summarized in Table F, are based on a scale of 0 to 100 where 0 is no effect and 100 is complete control. A dash (-) response means no test result.

In assay [2] the test system is redstem. Nature of the assay: Test F flood (paddy) test. The format is in vivo, Ammannia coccinea. The following applies: 21 d, scale 0-100.
Excerpt: as §1

For assay [3], the system named is flatsedge, rice. Description: Test F flood (paddy) test. The assay is classed as in vivo, Cyperus iria. The following applies: 21 d, scale 0-100.
Excerpt: as §1

The subject of assay [4] is cocklebur. Description: Test E preemergence herbicide test. The assay is classed as in vivo, Xanthium strumarium. Set-up: key: 0 = no effect, 100 = complete control. The source says:
(§2) Seeds of plant species selected from corn (Zea mays), soybean (Glycine max), velvetleaf (Abutilon theophrasti), lambsquarters (Chenopodium album), wild poinsettia (Euphorbia heterophylla), pigweed, palmer (palmer pigweed, Amaranthus palmeri), waterhemp (common waterhemp, Amaranthus rudis), surinam grass (Brachiaria decumbens), crabgrass, large (large crabgrass, Digitaria sanguinalis), crabgrass, Brazil (Brazilian crabgrass, Digitaria horizontalis), panicum, fall (fall panicum, Panicum dichotomiflorum), foxtail, giant (giant foxtail, Setaria faberii), foxtail, green (green foxtail, Setaria viridis), goosegrass (Eleusine indica), johnsongrass (Sorghum halepense), ragweed (common ragweed, Ambrosia elatior), barnyardgrass (Echinochloa crus-galli), sandbur (southern sandbur, Cenchrus echinatus), arrowleaf […] rhombifolia), ryegrass, Italian (Italian ryegrass, Lolium multiflorum), dayflower, VA (Virginia dayflower, Commelina virginica), field bindweed (Convolvulus arvensis), morningglory (Ipomoea coccinea), nightshade (eastern black nightshade, Solanum ptycanthum), kochia (Kochia scoparia), nutsedge, yellow (yellow nutsedge, Cyperus esculentus), cocklebur (common cocklebur, Xanthium strumarium), smartweed (ladysthumb smartweed, Polygonum Persicaria) and beggarticks (hairy beggarticks, Bidens pilosa), were planted into a silt loam soil and treated preemergence with test chemicals formulated in a non-phytotoxic solvent mixture which included a surfactant. Treated plants and controls were maintained in a greenhouse for 21 days, after which time all species were compared to controls and visually evaluated. Plant response ratings, summarized in Table E, are based on a scale of 0 to 100 where 0 is no effect and 100 is complete control. A dash (-) response means no test result.

For assay [5], the system named is pigweed, palmer. Description: Test E preemergence herbicide test. The assay is classed as in vivo, Amaranthus palmeri. Set-up: key: 0 = no effect, 100 = complete control.
Excerpt: as §2

Assay [6] deals with deadnettle. Nature of the assay: Test C postemergence herbicide test. The assay is classed as in vivo, Lamium amplexicaule. The source says:
(§3) At the same time, plants selected from these crop and weed species and also barley (winter barley, Hordeum vulgare), […]), chickweed (common chickweed, Stellaria media), deadnettle (henbit deadnettle, Lamium amplexicaule), and canarygrass (littleseed canarygrass, Phalaris minor) were planted in pots containing Redi-Earth® planting medium (Scotts Company, 14111 Scottslawn Road, Marysville, Ohio 43041) comprising spaghnum peat moss, vermiculite, wetting agent and starter nutrients and treated with postemergence applications of test chemicals formulated in the same manner. Plants ranged in height from 2 to 18 cm (1- to 4-leaf stage) for postemergence treatments. Treated plants and controls were maintained in a greenhouse for 13 to 15 days, after which time all species were compared to controls and visually evaluated. Plant response ratings, summarized in Table C, are based on a scale of 0 to 100 where 0 is no effect and 100 is complete control. A dash (-) response means no test result.

The subject of assay [7] is windgrass. Nature of the assay: Test C postemergence herbicide test. The assay is classed as in vivo, Apera spica-venti.
Excerpt: as §3

The subject of assay [8] is barley (winter barley). Nature of the assay: Test C postemergence herbicide test. The format is in vivo, Hordeum vulgare.
Excerpt: as §3

Assay [9] has as its system canarygrass. Description: Test C postemergence herbicide test. The assay is classed as in vivo, Phalaris minor.
Excerpt: as §3

The test system of assay [10] is Rice, W.S. Ind. Nature of the assay: Test F flood (paddy) test. The format is in vivo, Oryza sativa Indica. Particulars: 21 d, scale 0-100.
Excerpt: as §1

The test system of assay [11] is waterplantain. Nature of the assay: Test F flood (paddy) test. The format is in vivo, Alisma plantago-aquatica. Particulars: 21 d, scale 0-100.
Excerpt: as §1

Where [12] appears, read: 31 g ai/ha, scale 0 (no effect) to 100 (complete control).
The mark [13] stands for this setting: 62 g ai/ha, scale 0 to 100 (0 no effect, 100 complete control).
Where [14] appears, read: 125 g ai/ha, scale 0 to 100 (0 no effect, 100 complete control).
[15] abbreviates: 250 g ai/ha, scale 0 to 100 (0 no effect, 100 complete control).

Regarding `O=C1NCC(c2cccc(C(F)(F)F)c2)C1C(=O)Nc1ccccc1F` (racemic) [Compound 3], the “Plant response rating, Sedge, Umbrella” value in assay [1] (250 g ai/ha) and in assay [1] (500 g ai/ha) was 0 each time. Moreover, the “Plant response rating, Redstem” value was determined as 0 in [2] (250 g ai/ha) and 20 in assay [2] (500 g ai/ha). For the same compound, the figures for the “Plant response rating, Flatsedge, Rice” value in assay [3] (250 g ai/ha) and in assay [3] (500 g ai/ha) were 0 and 20, respectively.

Turning to `O=C1NCC(c2ccc(F)cc2)C1C(=O)Nc1ccccc1F` (racemic) [Compound 16], the “Plant response rating, Cocklebur” value in assay [4] (16 g ai/ha), in assay [4] (31 g ai/ha), in assay [4] (62 g ai/ha), in [4] (125 g ai/ha) and in assay [4] (250 g ai/ha) was 0 throughout. Besides, the “Plant response rating, Pigweed, Palmer” value in [5] (16 g ai/ha), in assay [5] (31 g ai/ha), in assay [5] (62 g ai/ha), in assay [5] (125 g ai/ha) and in assay [5] (250 g ai/ha) was 0 in each case.

Regarding `O=C1NCC(c2cc(F)c(F)c(F)c2)C1C(=O)Nc1ccccc1F` (racemic) [Compound 34], the “Plant response rating, Deadnettle” value in [6] (setting [12]), in assay [6] (setting [13]), in [6] (setting [14]) and in [6] (setting [15]) was 0 each time. For the same compound, the “Plant response rating, Windgrass” value in assay [7] (setting [12]) is 0; in assay [7] (setting [13]), 0; in assay [7] (setting [14]), 0; in assay [7] (setting [15]), 5. In addition, the “Plant response rating, Barley” value in [8] (setting [12]), in assay [8] (setting [13]), in assay [8] (setting [14]) and in assay [8] (setting [15]) was 0 throughout. Moreover, the “Plant response rating, Canarygrass” value in assay [9] (setting [12]), in [9] (setting [13]), in [9] (setting [14]) and in assay [9] (setting [15]) was 0 each time.

On to `O=C1NCC(c2ccccc2)C1C(=O)Nc1ccccc1F` (racemic) [Compound 81], for which the “Plant response rating, Windgrass” value in assay [7] (setting [12]) was 0; in [7] (setting [13]), 0; in [7] (setting [14]) it was 20; in [7] (setting [15]), 20. The “Plant response rating, Barley” value in assay [8] (setting [12]), in assay [8] (setting [13]), in assay [8] (setting [14]) and in assay [8] (setting [15]) was 0 each time. The “Plant response rating, Canarygrass” value in assay [9] (setting [12]), in assay [9] (setting [13]), in assay [9] (setting [14]) and in [9] (setting [15]) was 0 in each case.

Consider `O=C1NCC(c2cccc(C(F)(F)F)c2)C1C(=O)Nc1ccc(F)cc1F` (racemic) [Compound 207], for which the entries for the “Plant response rating, Rice, W.S. Ind” value in [10] (125 g ai/ha), in [10] (250 g ai/ha) and in assay [10] (500 g ai/ha) were 0, 0 and 10, respectively.

With `O=C1NCC(c2ccc(C(F)(F)F)c(F)c2)C1C(=O)Nc1cccc(F)c1F` (racemic) [Compound 247], the “Plant response rating, Sedge, Umbrella” value in assay [1] (125 g ai/ha), in assay [1] (250 g ai/ha), in assay [1] (500 g ai/ha), in [1] (1000 g ai/ha) and in [1] (2000 g ai/ha) was 0 in each case. The “Plant response rating, Waterplantain” value is 80 in assay [11] (125 g ai/ha); 85 in [11] (250 g ai/ha); 90 in [11] (500 g ai/ha); 90 in assay [11] (1000 g ai/ha); 90 in [11] (2000 g ai/ha). The “Plant response rating, Redstem” value in assay [2] (125 g ai/ha) amounted to 0; in [2] (250 g ai/ha), 0; in assay [2] (500 g ai/ha), 0; in [2] (1000 g ai/ha) it was 50; in assay [2] (2000 g ai/ha) it was 55. For the same compound, the “Plant response rating, Flatsedge, Rice” value in [3] (125 g ai/ha) turned out to be 0; in assay [3] (250 g ai/ha), 0; in [3] (500 g ai/ha), 0; in [3] (1000 g ai/ha), 0; in assay [3] (2000 g ai/ha), 35.

`O=C1NCC(c2cccc(Br)c2)C1C(=O)Nc1ccccc1F` (stereo not drawn) [Compound 66]: the “Plant response rating, Cocklebur” value in assay [4] (16 g ai/ha), in [4] (31 g ai/ha) and in assay [4] (62 g ai/ha) was 0 each time.

Consider `O=C1NCC(c2ccc(C(F)(F)F)cc2)C1C(=O)Nc1ccc(F)c(F)c1F` (stereo not drawn) [Compound 232], for which the “Plant response rating, Pigweed, Palmer” value is listed as 0 in [5] (31 g ai/ha), 0 in [5] (62 g ai/ha), 80 in assay [5] (125 g ai/ha) and 65 in assay [5] (250 g ai/ha).

With `CN1CC(c2ccc(F)cc2)C(C(=O)Nc2cccc(F)c2F)C1=O` (stereo not drawn) [Compound 271], the “Plant response rating, Rice, W.S. Ind” value is recorded as 0 in assay [10] (64 g ai/ha), 15 in assay [10] (125 g ai/ha), 30 in assay [10] (250 g ai/ha) and 60 in [10] (500 g ai/ha).
